In article PMC9181126, “Design, Synthesis, Molecular Docking Analysis and Biological Evaluations of 4-[(Quinolin-4-yl)amino]benzamide Derivatives as Novel Anti-Influenza Virus Agents” (International Journal of Molecular Sciences, 2022):
Values joined by “and” are separate entries in the source; they are usually repeats but may differ in a detail not shown here. Equal values may be shown once.

Experiments:
[1] = tested on: influenza virus A/WSN/33 (H1N1); experiment: Plaque inhibition assay in MDCK cells; format: cell-based; details: MDCK, read-out: Plaque Inhibition Assay (A/WSN/33, H1N1) Inhibition Rate; for inhibition at 12.5 µM: concentration 12.5 µM
[2] = tested on: influenza virus A/WSN/33 (H1N1); experiment: organism not typed; format: cell-based; details: MDCK, 72 h; for EC50: read-out: Cytopathic Effect Assay (A/WSN/33, H1N1) EC50; for inhibition at 12.5 µM / inhibition at 25 µM / inhibition at 50 µM / inhibition at 100 µM: H1N1|WSN, read-out: Antiviral activity in CPE assay
HEK293T cells = experiment: in vitro; format: cell-based; details: human, 72 h
Experimental: (§1) The 3-(4,5-dimethylthiazol-2-yl)-2,5-diphenyltetrazolium bromide (MTT) method was performed to assess the cytotoxicity of target compounds in MDCK cells and HEK293T cells. Firstly, MDCK cells or HEK293T cells were seeded into the 96-well plate. Then, the media containing test compounds replaced the growth media after 48 h. Incubate MDCK cells or HEK293T cells with test compounds for 72 h at 37 °C in a humidified 5% CO2 incubator. Later, MTT solution (5 mg/mL in PBS) was added into each well and plates were incubated for 4 h at 37 °C. Then, add a solubilization solution to lyse cells. Finally, absorbance was read at 620 nm using an ELISA plate reader (Tecan Sunrise) after 3 h of further incubation at 37 °C. We set the values obtained from the wells treated with only DMSO as 100% of viable cells.

in vitro [3] = format: cell-based; details: human
Experimental: as §1

MDCK cells = experiment: in vitro; format: cell-based, canine; details: dog, 72 h
Experimental: as §1

in vitro [4] = format: cell-based, canine; details: dog
Experimental: as §1

PA-PB1 endonuclease = tested on: PA-PB1 endonuclease; parameters: method as in supplement 1-7; details: training and test set compounds collected from literature; ref supplement 1-7; read-out: IC50 value Experimental (PA-PB1 endonuclease inhibitors); cited from earlier work

Compound | EC50 [2] [µM] | melting point [°C] | HEK293T cells survival rate (HEK293T cells; 3.125 µmol·L−1) [%] | HEK293T cells survival rate (HEK293T cells; 6.25 µmol·L−1) [%] | HEK293T cells survival rate (HEK293T cells; 12.5 µmol·L−1) [%] | HEK293T cells survival rate (HEK293T cells; 25 µmol·L−1) [%] | HEK293T cells survival rate (HEK293T cells; 50 µmol·L−1) [%] | HEK293T cells survival rate (HEK293T cells; 100 µmol·L−1) [%] | CC50 at 72 h (in vitro [3]) [µM] | MDCK cells survival rate (MDCK cells; 12.5 µmol·L−1) [%] | MDCK cells survival rate (MDCK cells; 25 µmol·L−1) [%] | MDCK cells survival rate (MDCK cells; 50 µmol·L−1) [%] | MDCK cells survival rate (MDCK cells; 100 µmol·L−1) [%] | CC50 at 72 h (in vitro [4]) [µM] | inhibition at 12.5 µM [2] [%] | inhibition at 25 µM [2] [%] | inhibition at 50 µM [2] [%] | inhibition at 100 µM [2] [%] | IC50 (PA-PB1 endonuclease) | other results
O=C(O)c1ccc(Nc2ccnc3cc(C(F)(F)F)ccc23)cc1 [4-{[7-(Trifluoromethyl)quinolin-4-yl]amino}benzoic acid] | 22.9 | 323.7 to 324.9 |  |  |  |  |  |  |  |  |  |  |  |  |  |  |  |  |  | inhibition at 50 µM ([1]; concentration 50 µM): 50%
CCCNC(=O)c1ccc(Nc2ccnc3cc(C(F)(F)F)ccc23)cc1 [Compound G03, N-Propyl-4-{[7-(trifluoromethyl)quinolin-4-yl]amino}benzamide] | 10 ± 1.9 | 242.5 to 243.4 | 98.97±9.80 | 89.61±8.87 | 97.78±4.47 | 91.10±7.09 | 84.12±2.84 | 74.22±4.02 | > 100 | 107.23±8.32 | 128.70±3.04 | 132.67±1.65 | 144.22±4.46 | > 100 | 54.9 ± 4.62 | 56.7 ± 11.7 | 70.3 ± 9.33 | 78.7 ± 8.35 |  | inhibition at 100 µM ([1]; concentration 100 µM): < 10%
CCN(CC)CCCNC(=O)c1ccc(Nc2ccnc3cc(C(F)(F)F)ccc23)cc1 [Compound G06, N-[3-(Diethylamino)propyl]-4-{[7-(trifluoromethyl)quinolin-4-yl]amino}benzamide] | > 100 | 216.5 to 219.3 | 107.15±2.76 | 90.35±0.85 | 96.59±4.26 | 85.50±2.49 | 85.25±2.63 | 76.47±9.94 | > 100 | 95.22±3.96 | 96.67±0.91 | 84.01±5.28 | 79.75±2.72 | > 100 | 16.7 ± 1.15 | 13.1 ± 0.69 | 12.8 ± 0.69 | 11.2 ± 0.23 |  | inhibition at 12.5 µM [1]: < 10%
O=C(NCCCN1CCOCC1)c1ccc(Nc2ccnc3cc(C(F)(F)F)ccc23)cc1 [Compound G08, N-(3-Morpholinopropyl)-4-{[7-(trifluoromethyl)quinolin-4-yl]amino}benzamide] | > 100 | 207.3 to 209.1 | 100.86±3.39 | 97.00±3.10 | 95.72±3.30 | 95.56±2.29 | 98.07±1.80 | 112.13±1.41 | > 100 | 95.86±1.24 | 76.43±4.79 | 75.20±0.25 | 78.41±2.97 | > 100 | 44.3 ± 3.44 | 45.6 ± 9.4 | 31.1 ± 8.71 | 15.4 ± 0.23 |  | inhibition at 25 µM ([1]; concentration 25 µM): 11.5%
O=C(NC1CCCCC1)c1ccc(Nc2ccnc3cc(C(F)(F)F)ccc23)cc1 [Compound G09, N-Cyclohexyl-4-{[7-(trifluoromethyl)quinolin-4-yl]amino}benzamide] | > 100 | 236.5 to 237.3 | 106.48±6.90 | 98.20±3.74 | 92.83±3.70 | 96.79±0.62 | 101.55±2.23 | 81.22±3.80 | > 100 | 156.36±6.13 | 124.74±4.87 | 130.46±12.65 | 133.61±3.89 | > 100 | 31.9 ± 0.69 | 22.9 ± 3.9 | 21.4 ± 0.92 | 23.2 ± 3.9 |  | inhibition at 12.5 µM [1]: 46.9%
O=C(c1ccc(Nc2ccnc3cc(C(F)(F)F)ccc23)cc1)N1CCN(c2cccc(C(F)(F)F)c2)CC1 [Compound G16, {4-[3-(Trifluoromethyl)phenyl]piperazin-1-yl}{4-{[7-(trifluoromethyl)quinolin-4-yl]amino}phenyl}methanone] | > 100 | 217 to 218.5 | 89.31±3.06 | 79.52±2.87 | 80.26±3.54 | 75.35±5.51 | 70.68±3.36 | 66.51±2.68 | > 100 | 83.03±1.26 | 85.52±2.56 | 92.23±7.81 | 103.91±10.21 | > 100 | 15.7 ± 1.33 | 36.8 ± 3.16 | 33.8 ± 2.71 | 45.7 ± 2.09 |  | 
Cc1cc(-c2ccccc2)n2nc(C(=O)Nc3sc4c(c3C(N)=O)CCCCC4)nc2n1 [Compound H01] |  |  |  |  |  |  |  |  |  |  |  |  |  |  |  |  |  |  | 1.1 µM | 
NC(=O)c1c(NC(=O)c2nc3nc(-c4ccccc4)cc(C(F)(F)F)n3n2)sc2c1CCCC2 [Compound H02, N-(3-carbamoyl-4,5,6,7-tetrahydrobenzo[b]thiophen-2-yl)-5-phenyl-7-(trifluoromethyl)-[1,2, 4]triazolo[1,5-a]pyrimidine-2-carboxamide] |  |  |  |  |  |  |  |  |  |  |  |  |  |  |  |  |  |  | 7.5 µM and 6.2 µM | 
Cc1cc(-c2ccccc2)n2nc(C(=O)Nc3sc4c(c3C(N)=O)CCC4)nc2n1 [Compound H03] |  |  |  |  |  |  |  |  |  |  |  |  |  |  |  |  |  |  | 6.2 µM and 7.5 µM | 
CCC(C)NC(=O)c1ccccc1NC(=O)c1cccc(S(=O)(=O)Nc2ccccc2)c1 (stereo not drawn) [Compound H04] |  |  |  |  |  |  |  |  |  |  |  |  |  |  |  |  |  |  | 9.2 µM | 
O=C1c2ccccc2C(=O)c2c1cc(Nc1ccccc1)c1nsnc21 [Compound H10] |  |  |  |  |  |  |  |  |  |  |  |  |  |  |  |  |  |  | 9.5 µM | 
